The target of one experiment is T1, MUTE bHLH domain (Arabidopsis thaliana, UniProt Q9M8K6).
T1 construct: MUTEΔC (1-114); made in house; host or cells: E. coli BL21
T1 sequence (Q9M8K6 1-114): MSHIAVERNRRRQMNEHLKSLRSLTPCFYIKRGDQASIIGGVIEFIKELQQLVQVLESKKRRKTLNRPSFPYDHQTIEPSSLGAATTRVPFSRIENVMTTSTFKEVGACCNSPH
Nature of the experiment: BLI direct binding. Particulars: for Response: BLI, GST-MUTE_bHLH on Anti-GST sensor, unit assumed. On the set-up: species or system A. thaliana.

The next experiment concerns the target T2, DB+SCRM (control yeast) (Arabidopsis thaliana, UniProt Q9LSE2).
T2 construct: expressed in transfected cells; host or cells: yeast strain AH109
T2 sequence (Q9LSE2 1-494): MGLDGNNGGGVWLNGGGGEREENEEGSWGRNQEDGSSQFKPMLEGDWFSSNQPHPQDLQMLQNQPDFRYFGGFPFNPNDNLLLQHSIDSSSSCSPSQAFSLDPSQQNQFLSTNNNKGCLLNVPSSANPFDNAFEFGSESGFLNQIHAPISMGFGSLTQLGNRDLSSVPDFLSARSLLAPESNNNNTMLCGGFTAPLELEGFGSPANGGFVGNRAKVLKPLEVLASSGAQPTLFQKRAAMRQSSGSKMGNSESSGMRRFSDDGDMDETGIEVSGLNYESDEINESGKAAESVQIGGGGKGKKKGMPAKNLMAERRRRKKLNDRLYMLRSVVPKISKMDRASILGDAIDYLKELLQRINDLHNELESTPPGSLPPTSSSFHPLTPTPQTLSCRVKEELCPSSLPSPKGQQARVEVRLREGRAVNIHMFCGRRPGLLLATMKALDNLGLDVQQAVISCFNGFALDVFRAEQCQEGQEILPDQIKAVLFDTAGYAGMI
Nature of the experiment: Y2H quantitative α-galactosidase assay, control pair DB+SCRM. Type of experiment: cell-based. Particulars: individual replicates, listed as AYSJ929. The text has this: (§1) Supplement 41467_2024_53214_MOESM7_ESM.xlsx, sheet "Fig.6b" | column: a-galactosidase [milliunits /(ml x cell)]

A further experiment has as its target T3, MUTE+AD (control yeast) (Arabidopsis thaliana, UniProt Q9M8K6).
T3 construct: expressed in transfected cells; host or cells: yeast strain AH109
T3 sequence (Q9M8K6 1-202): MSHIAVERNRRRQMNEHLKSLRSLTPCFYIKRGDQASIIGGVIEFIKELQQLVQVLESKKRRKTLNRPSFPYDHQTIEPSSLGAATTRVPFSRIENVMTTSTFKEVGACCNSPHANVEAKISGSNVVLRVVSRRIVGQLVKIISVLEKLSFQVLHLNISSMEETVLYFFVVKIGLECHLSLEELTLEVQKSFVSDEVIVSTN
Nature of the experiment: Y2H quantitative α-galactosidase assay, control pair MUTE+AD. The note with it: individual replicates, listed as AYSJ929. In kind it is cell-based.
From the text: as §1

“And” between values parts separate entries of the source, which are not always exact repeats. Equal values may be shown once.

With `O=C1C(c2ccccc2)=NC(NS(=O)(=O)c2ccccc2)(c2ccccc2)N1S(=O)(=O)c1ccccc1` (stereo not shown) [Stomidazolone], the “binding to MUTE bHLH versus ACTL domain (in words)” value at MUTE bHLH domain (BLI (Fig. 6h)) is “specifically binds to the ACTL domain”. Moreover, the Response on MUTE bHLH domain (Stomid Conc. (nM) 6.25) was 0.0607 nm; at MUTE bHLH domain (Stomid Conc. (nM) 12.5), 0.0612 nm; on MUTE bHLH domain (Stomid Conc. (nM) 25), 0.0712 nm; at MUTE bHLH domain (Stomid Conc. (nM) 50) it was 0.0833 nm; at MUTE bHLH domain (Stomid Conc. (nM) 100), 0.0921 nm; at MUTE bHLH domain (Stomid Conc. (nM) 200), 0.106 nm. For the same molecule, the a-galactosidase at DB+SCRM (control yeast) (10 µM) was 0.72 milliunits /(ml x cell) and 0.19 milliunits /(ml x cell) and 0.32 milliunits /(ml x cell); on DB+SCRM (control yeast) (50 µM), 0.16 milliunits /(ml x cell) and 0.47 milliunits /(ml x cell) and 0.51 milliunits /(ml x cell); at DB+SCRM (control yeast) (100 µM), 0.46 milliunits /(ml x cell) and 0.80 milliunits /(ml x cell) and 0.52 milliunits /(ml x cell); at MUTE+AD (control yeast) (10 µM) it was 0.24 milliunits /(ml x cell) and 0.60 milliunits /(ml x cell) and 0.40 milliunits /(ml x cell); at MUTE+AD (control yeast) (50 µM), 0.22 milliunits /(ml x cell) and 0.36 milliunits /(ml x cell) and 0.19 milliunits /(ml x cell); on MUTE+AD (control yeast) (100 µM), 0.20 milliunits /(ml x cell) and 0.52 milliunits /(ml x cell) and 0.42 milliunits /(ml x cell).

These data come from article PMC11500415, “Chemical inhibition of stomatal differentiation by perturbation of the master-regulatory bHLH heterodimer via an ACT-Like domain” (Nature Communications, 2024).
